Data from patent publication US5034380A, “Alkoxymethylidene epipodophyllotoxin glucosides” (Bristol-Myers Squibb Company, priority 1989, dated 1991).
Values after ≈ are worked out from the molar mass of the structure shown.

Legend:
[1] = tested on: Moser human colon carcinoma; assay: in vitro cytotoxicity, Moser human colon carcinoma; type: cell-based; conditions: 72 hours, neutral red
Procedure: (§1) Representative compounds of the present invention were also tested in in vitro cytotoxicity assays against four tumor cell lines. These cell lines were grown and maintained at 37° C. under a humidified atmosphere in a 5% CO2 incubator:
Moser human colon carcinoma in Eagle's MEM medium supplemented with FCS (10 %);
(§2) In experiments using the B16-F10 and Moser cell lines, exponentially growing cells were harvested, counted and suspended in the culture medium at a concentration of 1.5×10^4 and 3×10^4 cells/ml, respectively. Twenty-four hours after planting cell suspension (180 μl) into wells of a 96-well microtiter plate, test materials (20 μl) were added to the wells and the plates were incubated for 72 hours. Cytotoxicity against the tumor cells was colorimetrically determined at 540 nm after staining viable cells with neutral red solution. For the K562 and K562/ADM cell lines, 900 μl of the cell suspension (8×10^4 cells/ml) was incubated with test materials (100 μl) at 37° C., 5% CO2 for 48 hours in a 24-well tissue culture plate. Cytotoxicity was determined by counting the number of cells using a cell counter.

B16-F10 murine melanoma = assay: in vitro cytotoxicity, B16-F10 murine melanoma; type: cell-based; conditions: Mus musculus; B16-F10, 72 hours, neutral red
Procedure: as §1
B16-F10 murine melanoma in Eagle's MEM medium (Nissui) containing kanamycin (60 μg/ml) and supplemented with heat-inactivated fetal calf serum (FCS, 10 %) and non-essential amino acids (0.6 %);
as §2

[2] = tested on: murine transplantable P388 leukemia; assay: in vivo antitumor activity against P388 leukemia in mice (single ip dose, median survival time); design: species or system murine (female CDF1 mice); conditions: Q1D × 1, ip; for T/C % of MST: day 1
Procedure: Representative compounds of the present invention were evaluated for antitumor activity against murine transplantable P388 leukemia. Female CDF1 mice were inoculated intraperitoneally with approximately 10^6 P388 leukemic cells (day 0). […] The percent increase of median survival time (MST) of treated animals over that of untreated control animals was determined and reported as % T/C. Compounds showing % T/C values of 125 or greater are considered to have significant antitumor activity.

[3] = tested on: K562/ADM, an adriamycin-resistant subline; assay: in vitro cytotoxicity, K562/ADM adriamycin-resistant subline; type: cell-based; conditions: Homo sapiens, 48 hours, cell counter
Procedure: as §1
(§3) K562 human myelogenous leukemia and K562/ADM, an adriamycin-resistant subline which was kindly provided by Dr. Takashi Tsuruo (University of Tokyo) in RPMI 1640 medium (Nissui) supplemented with FCS (10 %), penicillin (100 U/ml) and streptomycin (100 μg/ml).
as §2

[4] = tested on: K562 human myelogenous leukemia; assay: in vitro cytotoxicity, K562 human myelogenous leukemia; type: cell-based; conditions: K562, 48 hours, cell counter
Procedure: as §1, §3, §2

SMILES: COc1cc([C@@H]2c3cc4c(cc3[C@@H](O[C@@H]3O[C@@H]5COC(OC)(OC)O[C@H]5[C@H](O)[C@H]3O)[C@H]3COC(=O)[C@H]23)OCO4)cc(OC)c1O [Compound 3, 4'-Demethyl-4-O-(4,6-O-Dimethoxymethylidene-β-D-Glucopyranosyl)Epipodophyllotoxin]
- IC50 [1]: 3.3 µg/mL (≈ 5.2 µM)
- IC50 (B16-F10 murine melanoma): 2.7 µg/mL (≈ 4.25 µM)
- T/C % of MST ([2]; 0.1 mg/kg): 125%
- T/C % of MST ([2]; 0.3 mg/kg): 135%
- T/C % of MST ([2]; 1 mg/kg): 135%
- T/C % of MST ([2]; 3 mg/kg): 140%
- T/C % of MST ([2]; 10 mg/kg): 170%
- T/C % of MST ([2]; 30 mg/kg): 190%
- T/C % of MST ([2]; 60 mg/kg): 170%
- Number of survivors/tested on day 50 ([2]; 120 mg/kg): 1/4
- T/C % of MST ([2]; 120 mg/kg): 210%

SMILES: CCOC1(OCC)OC[C@H]2O[C@@H](O[C@@H]3c4cc5c(cc4[C@@H](c4cc(OC)c(O)c(OC)c4)[C@H]4C(=O)OC[C@@H]43)OCO5)[C@H](O)[C@@H](O)[C@@H]2O1 [Compound 4, 4'-Demethyl-4-O-(4,6-Diethoxymethylidene-β-D-Glucopvranosyl)Epipodophyllotoxin]
- IC50 [3]: 32 µg/mL (≈ 48.3 µM)
- IC50 [4]: 0.082 µg/mL (≈ 0.124 µM)
- IC50 [1]: 3 µg/mL (≈ 4.53 µM)
- IC50 (B16-F10 murine melanoma): 7.3 µg/mL (≈ 11 µM)
- T/C % of MST ([2]; 0.1 mg/kg): 100%
- T/C % of MST ([2]; 0.3 mg/kg): 109%
- T/C % of MST ([2]; 1 mg/kg): 127%
- T/C % of MST ([2]; 3 mg/kg): 132%
- T/C % of MST ([2]; 10 mg/kg): 136%
- T/C % of MST ([2]; 30 mg/kg): 145%
- T/C % of MST ([2]; 60 mg/kg): 150%
- T/C % of MST ([2]; 120 mg/kg): 182%

SMILES: COc1cc([C@@H]2c3cc4c(cc3[C@@H](O[C@@H]3O[C@@H]5CO[C@H](OC)O[C@H]5[C@H](O)[C@H]3O)[C@H]3COC(=O)[C@H]23)OCO4)cc(OC)c1O [Compound 1a, 4'-Demethyl-4-O-(4,6-O-β-Methoxymethylidene-β-D-Glucopyranosyl)Epipodophyllotoxin]
- IC50 (B16-F10 murine melanoma): 0.094 µg/mL (≈ 0.155 µM)
- T/C % of MST ([2]; 0.1 mg/kg): 115%
- T/C % of MST ([2]; 0.3 mg/kg): 132%
- T/C % of MST ([2]; 1 mg/kg): 137%
- T/C % of MST ([2]; 3 mg/kg): 142%
- T/C % of MST ([2]; 10 mg/kg): 149%
- T/C % of MST ([2]; 30 mg/kg): 166%
- T/C % of MST ([2]; 60 mg/kg): 195%
- T/C % of MST ([2]; 120 mg/kg): 248%

SMILES: CCO[C@@H]1OC[C@H]2O[C@@H](O[C@@H]3c4cc5c(cc4[C@@H](c4cc(OC)c(O)c(OC)c4)[C@H]4C(=O)OC[C@@H]43)OCO5)[C@H](O)[C@@H](O)[C@@H]2O1 [Compound 2b, 4'-Demethyl-4-O-(4,6-O-α-Ethoxymethylidene-α-D-Glucopyranosyl)Epipodophyllotoxin]
- IC50 [3]: > 50 µg/mL
- IC50 [4]: 0.18 µg/mL (≈ 0.291 µM)
- IC50 [1]: 2.2 µg/mL (≈ 3.56 µM)
- IC50 (B16-F10 murine melanoma): 0.54 µg/mL (≈ 0.873 µM)
- T/C % of MST ([2]; 0.1 mg/kg): 114%
- T/C % of MST ([2]; 0.3 mg/kg): 114%
- T/C % of MST ([2]; 1 mg/kg): 119%
- T/C % of MST ([2]; 3 mg/kg): 138%
- T/C % of MST ([2]; 10 mg/kg): 143%
- T/C % of MST ([2]; 30 mg/kg): 167%
- T/C % of MST ([2]; 60 mg/kg): 200%
- Number of survivors/tested on day 50 ([2]; 120 mg/kg): 1/4
- T/C % of MST ([2]; 120 mg/kg): 219%

SMILES: CCO[C@H]1OC[C@H]2O[C@@H](O[C@@H]3c4cc5c(cc4[C@@H](c4cc(OC)c(O)c(OC)c4)[C@H]4C(=O)OC[C@@H]43)OCO5)[C@H](O)[C@@H](O)[C@@H]2O1 [Compound 2a, 4'-Demethyl-4-O-(4,6-O-β-Ethoxymethylidene-β-D-Glucopyranosyl)Epipodophyllotoxin]
- IC50 [3]: > 50 µg/mL
- IC50 [4]: 0.065 µg/mL (≈ 0.105 µM)
- IC50 [1]: 1.7 µg/mL (≈ 2.75 µM)
- IC50 (B16-F10 murine melanoma): 0.11 µg/mL (≈ 0.178 µM)
- T/C % of MST ([2]; 0.1 mg/kg): 114%
- T/C % of MST ([2]; 0.3 mg/kg): 119%
- T/C % of MST ([2]; 1 mg/kg): 124%
- T/C % of MST ([2]; 3 mg/kg): 133%
- T/C % of MST ([2]; 10 mg/kg): 148%
- T/C % of MST ([2]; 30 mg/kg): 171%
- T/C % of MST ([2]; 60 mg/kg): 181%
- T/C % of MST ([2]; 120 mg/kg): 214%

SMILES: COc1cc([C@@H]2c3cc4c(cc3[C@@H](O[C@@H]3O[C@@H]5CO[C@@H](OC)O[C@H]5[C@H](O)[C@H]3O)[C@H]3COC(=O)[C@H]23)OCO4)cc(OC)c1O [Compound 1b, 4'-Demethyl-4-O-(4,6-O-α-Methoxymethylidene-β-D-Glucopyranosyl)EpipodophYllotoxin]
- IC50 [1]: 3.4 µg/mL (≈ 5.62 µM)
- IC50 (B16-F10 murine melanoma): 0.27 µg/mL (≈ 0.447 µM)
- T/C % of MST ([2]; 0.1 mg/kg): 110%
- T/C % of MST ([2]; 0.3 mg/kg): 120%
- T/C % of MST ([2]; 1 mg/kg): 130%
- T/C % of MST ([2]; 3 mg/kg): 145%
- T/C % of MST ([2]; 10 mg/kg): 165%
- T/C % of MST ([2]; 30 mg/kg): 180%

SMILES: COc1cc([C@@H]2c3cc4c(cc3[C@@H](O[C@@H]3O[C@@H]5CO[C@@H](C)O[C@H]5[C@H](O)[C@H]3O)[C@H]3COC(=O)[C@H]23)OCO4)cc(OC)c1O [Etoposide, reference compound]
- T/C % of MST ([2]; 0.1 mg/kg): 120%
- T/C % of MST ([2]; 0.3 mg/kg): 130%
- T/C % of MST ([2]; 1 mg/kg): 136%
- T/C % of MST ([2]; 3 mg/kg): 143%
- T/C % of MST ([2]; 10 mg/kg): 163%
- T/C % of MST ([2]; 30 mg/kg): 185%
- T/C % of MST ([2]; 60 mg/kg): 212%
- T/C % of MST ([2]; 120 mg/kg): 288%
